# US10683272B2 (THE JOHNS HOPKINS UNIVERSITY, priority 2014, dated 2020)
# Where two headings read alike, the source gives them in different places. Where a SMILES comes first, the peptide text is derived from it. [ ]: non-standard residue; d: D form. The star is where a group is joined. ξ: configuration not given here. X1 = O=C(O)CC[C@H](NC(=O)N[C@@H](CCCCNC(=O)CCCCCCC(=O)*)C(=O)O)C(=O)O; DOTA = O=C(O)CN1CCN(CC(=O)O)CCN(CC(=O)*)CCN(CC(=O)O)CC1; ξF = NC(Cc1ccccc1)C(=O)O
# Tests used:
# PSMA = PSMA (Homo sapiens, UniProt Q04609); assay: fluorescence-based PSMA inhibition assay (Example 1); format: biochemical
# [1] = r1 relaxivity of solution phantoms at 9.4 T and 25° C.; format: physicochemical
# Protocol: (§1) When imaged at 9.4 T and 25° C., solution phantoms indicated r1 relaxivities in PBS that vary between 3.0 and 6.2 mM^−1 s^−1 per Gd(III) and between 3.0 and 12.5 mM-1 s-1 per contrast agent (Table 1). As expected, Gd1 has the lowest relaxivity followed by Gd2 and Gd3 at 25° C. To determine selectivity and specificity of the agents, human prostate cancer cells genetically modified to express high amounts of PSMA (PC3 PIP) and the corresponding wild-type, PSMA-non-expressing cells (PC3 flu) were selected as negative control (Banerjee, Angew., 2001). […] Enhancement and T1 measurements by means of MRI of the cell pellets in the presence and absence of 50 μM Gd3 indicated higher enhancement and difference in T1 relaxation rates, ΔR1 between Gd3 treated PIP cells and the control PIP cells as compared to the Gd3-treated flu cells and the control flu control cells, after removal of the Gd3 from the cell system by washing with standard medium (FIG. 4B and FIG. 4C).
# [2] = system: PSMA+ PC3 PIP and PSMA− PC3 flu cells; assay: T1-weighted MR imaging of cell pellets; format: cell-based, human; conditions: PSMA+ PC3 PIP vs PSMA− PC3 flu cell pellets
# Protocol: FIG. 4A through FIG. 4C show T1 contrast enhancement generated by Gd3 in an isogenic human PC3 prostate cancer cell pair, PSMA+ PIP and PSMA− flu cells; (A) Color coded T1 maps of PIP and flu cells. Relaxation rates were determined at 25° C. at 9.4 T; (B) Quantification of T1 changes (ΔT1) in PIP and flu cells (n=4, P<0.05) following treatment with Gd3; (C) cellular uptake of Gd3 in PIP and flu cells.
# as §1
# PSMA+ PC3 PIP cells [3] = assay: ICP-MS analysis of Gd in cell pellets; format: cell-based, human
# Excerpt: Thus, the difference between ΔR1 of the PIP cells and that of the flu cells reflects the change due to the specific Gd3 binding to PSMA in the PIP cells.
# PSMA+ PC3 PIP cells [4] = assay: cell internalization assay (ICP-MS); format: cell-based, human; conditions: PSMA+ PC3 PIP cells, 4 h incubation
# Protocol: FIG. 6A and FIG. 6B show the % ID of Gd3 cell surface bound (A) and internalized (B) at 1, 4 and 24 h;
# Moreover, slightly higher non-specific uptake was associated with Gd2 in PSMA− PC3 flu cells, which might be related to the lower K1 value of this agent compared to Gd1. As a further check on cellular uptake and internalization, a dual modality Gd monomeric contrast agent labeled with Rhodamine-Red™-X was prepared to confirm the PSMA-mediated internalization of this class of contrast agents (FIG. 5D).
# A time-dependent internalization study was performed for Gd3 (FIG. 6A and FIG. 6B) after 1, 4 and 24 h of incubation. […] A similar amount of Gd (˜33-37% ID) was associated with the cell membrane at those same time-points.
# [5] = system: PSMA+ PC-3 PIP and PSMA− PC-3 flu tumors; assay: small animal PET-CT imaging; format: in vivo, NOD/SCID mice; conditions: 2 h post-injection
# Protocol: Mice (n=3 for ^86Y-4 or ^86Y-6 and n=2 for ^86Y-5) were injected via the tail vein with 3.33-6.21 MBq (90-168 μCi) of radiotracer formulated in 100 μL of saline at pH ˜7. […] At different time points, anesthetized individual mice were placed in the prone position on the scanner gantry and secured with medical tape while the anesthesia flow rate was increased to 0.8 L/min. Images were reconstructed using the FORE/2D-OSEM method (two iterations, 16 subsets) and included correction for radioactive decay, scanner dead time, and scattered radiation. Partial volume correction (PVC) was not performed. After each PET scan, a CT scan was acquired for anatomic co-registration. To facilitate PET and CT image co-registration, a special animal bed was employed which fits both the PET and CT scanners. The animals were under anesthesia and immobilized when moving between scanners as well as during both scans. The reconstructed PET and CT images were then manually co-registered through rigid transformation, by aligning natural landmarks (such as the animal limbs and the bed contour) using the AMIDE software (from sourceforge.net/amide).
# Dynamic, whole-body PET and CT images were acquired on an eXplore VISTA small-animal PET (GE Healthcare, Little Chalfont, Buckinghamshire, UK) and an X-SPECT small SPECT/CT system (Gamma Medica Ideas, Northridge, Calif.), respectively.
# [6] = system: PSMA+ PIP and PSMA− flu cells; assay: cell uptake and internalization study of ^177Lu-SRVI71; format: cell-based
# [7] = system: PSMA+ PIP and PSMA− flu mouse xenografts; conditions: for uptake in PSMA+ tumor: n=4, text b326
# Protocol: In vivo evaluation was performed in standard PSMA+ PIP and PSMA− flu mouse xenografts and by performing SPECT imaging with a VECT or instrument with an extra ultra-high sensitivity mouse collimator as disclosed FIG. 25A, FIG. 25B and FIG. 25C.
# Sequence of PSMA (Q04609 whole entry): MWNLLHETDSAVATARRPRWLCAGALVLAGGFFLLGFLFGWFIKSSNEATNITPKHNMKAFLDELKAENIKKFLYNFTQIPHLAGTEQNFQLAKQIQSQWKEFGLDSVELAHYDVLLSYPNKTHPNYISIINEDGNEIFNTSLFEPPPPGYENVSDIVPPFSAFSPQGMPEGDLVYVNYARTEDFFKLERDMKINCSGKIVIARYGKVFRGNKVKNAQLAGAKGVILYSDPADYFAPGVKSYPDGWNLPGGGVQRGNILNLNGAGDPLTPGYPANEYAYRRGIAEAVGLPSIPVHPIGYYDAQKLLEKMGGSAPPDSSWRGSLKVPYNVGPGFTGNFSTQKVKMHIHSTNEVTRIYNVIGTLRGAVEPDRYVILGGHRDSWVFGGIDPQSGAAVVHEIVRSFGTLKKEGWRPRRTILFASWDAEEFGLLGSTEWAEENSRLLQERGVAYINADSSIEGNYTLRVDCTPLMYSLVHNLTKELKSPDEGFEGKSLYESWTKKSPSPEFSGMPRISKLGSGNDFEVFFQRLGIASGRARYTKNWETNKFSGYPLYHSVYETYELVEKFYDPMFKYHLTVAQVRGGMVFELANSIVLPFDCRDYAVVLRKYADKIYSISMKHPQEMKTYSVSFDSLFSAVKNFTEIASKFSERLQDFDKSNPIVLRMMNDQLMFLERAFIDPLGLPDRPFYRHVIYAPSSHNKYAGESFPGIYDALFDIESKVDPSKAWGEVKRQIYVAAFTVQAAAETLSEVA
structure (smiles),measurement,setting,value
"O=C([O-])CN1CCN(CC(=O)[O-])CCN(CC(=O)NCCCCC(NC(=O)CN2CCN(CC(=O)[O-])CCN(CC(=O)[O-])CCN(CC(=O)[O-])CC2)C(=O)NC(CCCCNC(=O)CCCCCCC(=O)NCCCC[C@H](NC(=O)N[C@@H](CCC(=O)O)C(=O)O)C(=O)O)C(=O)O)CCN(CC(=O)[O-])CC1.[Gd+3].[Gd+3] (stereo partly drawn) [Gd2, (30S,34S)-2,9,17,24,32-pentaoxo-1-(4,7,10-tris(carboxymethyl)-1,4,7,10-tetraazacyclododecan-1-yl)-8-(2-(4,7,10-tris(carboxymethyl)-1,4,7,10-tetraazacyclododecan-1-yl)acetamido)-3,10,16,25,31,33-hexaazahexatriacontane-11,30,34,36-tetracarboxylic acid, digadolinium(III) salt]",Ki,PSMA,18.2 nM
same,"r1 relaxivity, ionic (per Gd(III))","[1]; 9.4 T, 25° C., PBS",6.2 mM⁻¹ s⁻¹
same,"r1 relaxivity, molecular (per contrast agent)","[1]; 9.4 T, 25° C., PBS",12.5 mM⁻¹ s⁻¹
same,r1 relaxivity,[1]; column T1 of Table 1,5.44 mM⁻¹ s⁻¹
same,T1-weighted MR contrast of cell pellets,[2],did not demonstrate T1-weighted MR contrast or changes in R1
same,estimated intracellular Gd(III) concentration,PSMA+ PC3 PIP cells [3],~12.5 µM
same,percent of incubated dose associated with the cell surface,PSMA+ PC3 PIP cells [4],3.51±1.32 % ID
same,percent of incubated dose internalized,PSMA+ PC3 PIP cells [4],21.63±3.51 % ID
O=C([O-])CN1CCN(CC(=O)[O-])CCN(CC(=O)NC(Cc2ccccc2)C(=O)NC(Cc2ccccc2)C(=O)NC(Cc2ccccc2)C(=O)N[C@@H](CCCCNC(=O)CCCCCCC(=O)NCCCC[C@H](NC(=O)N[C@@H](CCC(=O)O)C(=O)O)C(=O)O)C(=O)O)CCN(CC(=O)[O-])CC1.[86Y+3] (stereo partly drawn) [^86Y-5] ({DOTA}-[ξF][ξF][ξF]K(X1)-OH),non-specific accumulation on PET/CT,[5],non-specific accumulation in the gastrointestinal tract
O=C([O-])CN1CCN(CC(=O)[O-])CCN(CC(=O)[O-])C(Cc2ccc(NC(=S)NCCCCNC(=O)CCCCCCC(=O)NCCCC[C@H](NC(=O)N[C@@H](CCC(=O)O)C(=O)O)C(=O)O)cc2)CN(CC(=O)[O-])CC1.[177Lu+3] (stereo partly drawn) [^177Lu-SR-VI-71],cell uptake,"[6]; 0.01-10 μCi, PSMA+ PIP vs PSMA− flu",high uptake in PSMA+ PIP and negligible uptake in PSMA− flu tumor
same,blockade of uptake in PSMA+ cells,[6]; co-incubation of 10 μM of ZJ43,~90%
same,fraction of total cell associated radioactivity internalized,[6]; internalization study,~44%
same,PIP:flu ratio,[7]; 2 h,~180
same,kidney uptake,[7]; 2 h,89.3±28.9%
same,uptake in PSMA+ tumor,[7]; 2 h,59.1±12.8 % ID/g
same,"Tissue biodistribution, Blood",[7]; 3 h,0.14 ± 0.04
same,"Tissue biodistribution, Flu tumor",[7]; 3 h,0.14 ± 0.03
same,"Tissue biodistribution, PIP tumor",[7]; 3 h,41.46 ± 7.88
same,"Tissue biodistribution, SI",[7]; 3 h,0.23 ± 0.12
same,"Tissue biodistribution, heart",[7]; 3 h,0.09 ± 0.04
same,"Tissue biodistribution, kidney",[7]; 3 h,53.66 ± 9.64
same,"Tissue biodistribution, liver",[7]; 3 h,0.31 ± 0.25
same,"Tissue biodistribution, lung",[7]; 3 h,0.62 ± 0.31
same,"Tissue biodistribution, muscle",[7]; 3 h,0.24 ± 0.14
same,"Tissue biodistribution, salivary gland",[7]; 3 h,0.42 ± 0.09
same,"Tissue biodistribution, spleen",[7]; 3 h,1.83 ± 0.38
same,"Tissue biodistribution, Blood",[7]; 24 h,0.03 ± 0.03
same,"Tissue biodistribution, Flu tumor",[7]; 24 h,0.09 ± 0.01
same,"Tissue biodistribution, PIP tumor",[7]; 24 h,27.52 ± 1.19
same,"Tissue biodistribution, SI",[7]; 24 h,0.10 ± 0.05
same,"Tissue biodistribution, heart",[7]; 24 h,0.04 ± 0.00
same,"Tissue biodistribution, kidney",[7]; 24 h,4.35 ± 0.41
same,"Tissue biodistribution, liver",[7]; 24 h,0.38 ± 0.35
same,"Tissue biodistribution, lung",[7]; 24 h,0.25 ± 0.026
same,"Tissue biodistribution, muscle",[7]; 24 h,0.04 ± 0.00
same,"Tissue biodistribution, salivary gland",[7]; 24 h,0.07 ± 0.08
same,"Tissue biodistribution, spleen",[7]; 24 h,0.74 ± 0.64
same,kidney uptake,[7]; 24 h,6.29±3.4 % ID/g
same,uptake in PSMA+ tumor,[7]; 24 h,40.6±5.8 ID/g
same,"Tissue biodistribution, Blood",[7]; 48 h,0.03 ± 0.03
same,"Tissue biodistribution, Flu tumor",[7]; 48 h,0.05 ± 0.00
same,"Tissue biodistribution, PIP tumor",[7]; 48 h,16.99 ± 2.65
same,"Tissue biodistribution, SI",[7]; 48 h,0.04 ± 0.01
same,"Tissue biodistribution, heart",[7]; 48 h,0.02 ± 0.00
same,"Tissue biodistribution, kidney",[7]; 48 h,2.35 ± 0.62
same,"Tissue biodistribution, liver",[7]; 48 h,0.11 ± 0.07
same,"Tissue biodistribution, lung",[7]; 48 h,0.06 ± 0.04
same,"Tissue biodistribution, muscle",[7]; 48 h,0.02 ± 0.00
same,"Tissue biodistribution, salivary gland",[7]; 48 h,0.10 ± 0.04
same,"Tissue biodistribution, spleen",[7]; 48 h,0.17 ± 0.05
same,"Tissue biodistribution, Blood",[7]; 72 h,0.01 ± 0.01
same,"Tissue biodistribution, Flu tumor",[7]; 72 h,0.04 ± 0.00
same,"Tissue biodistribution, PIP tumor",[7]; 72 h,15.63 ± 4.62
same,"Tissue biodistribution, SI",[7]; 72 h,0.05 ± 0.03
same,"Tissue biodistribution, heart",[7]; 72 h,0.03 ± 0.01
same,"Tissue biodistribution, kidney",[7]; 72 h,2.59 ± 1.10
same,"Tissue biodistribution, liver",[7]; 72 h,0.05 ± 0.03
same,"Tissue biodistribution, lung",[7]; 72 h,0.03 ± 0.02
same,"Tissue biodistribution, muscle",[7]; 72 h,0.01 ± 0.01
same,"Tissue biodistribution, salivary gland",[7]; 72 h,0.09 ± 0.04
same,"Tissue biodistribution, spleen",[7]; 72 h,0.09 ± 0.08
same,"Tissue biodistribution, Blood",[7]; 96 h,0.00 ± 0.00
same,"Tissue biodistribution, Flu tumor",[7]; 96 h,0.03 ± 0.0
same,"Tissue biodistribution, PIP tumor",[7]; 96 h,9.04 ± 1.72
same,"Tissue biodistribution, SI",[7]; 96 h,0.01 ± 0.00
same,"Tissue biodistribution, heart",[7]; 96 h,0.01 ± 0.00
same,"Tissue biodistribution, kidney",[7]; 96 h,1.44 ± 0.11
same,"Tissue biodistribution, liver",[7]; 96 h,0.04 ± 0.0
same,"Tissue biodistribution, lung",[7]; 96 h,0.05 ± 0.01
same,"Tissue biodistribution, muscle",[7]; 96 h,0.01 ± 0.0
same,"Tissue biodistribution, salivary gland",[7]; 96 h,0.06 ± 0.02
same,"Tissue biodistribution, spleen",[7]; 96 h,0.06 ± 0.03
